Test results published in US20080064667A1, “OXAZOLE DERIVATIVES OF TETRACYCLINES” (Wyeth, priority 2003, published 2008).
Converted amounts (≈) assume the structure as drawn.

Key:
Assay in all cases: MIC, broth microdilution (NCCLS)
Format in all cases: cell-based
[1] = test system: S. aureus GC6466 (tet(M)); details: Staphylococcus aureus, Mueller-Hinton II broth, 18-22 hours at 35° C.
In short: (§1)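 MICs determined in cation-standard Mueller-Hinton II broth with serial drug dilutions, each strain inoculated to 10^5 CFU/ml. Incubation: 35 °C, ambient air, 18-22 h, following NCCLS broth microdilution guidance.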

[2] = test system: S. pyogenes* GC4563 (Clinical); details: Streptococcus pyogenes, Mueller-Hinton II broth, 18-22 hours at 35° C.
In short: as §1

[3] = test system: S. pneumoniae* GC4465 (Clinical); details: Streptococcus pneumoniae, Mueller-Hinton II broth, 18-22 hours at 35° C.
In short: as §1

[4] = test system: S. aureus GC1131 (Clinical); details: Staphylococcus aureus, Mueller-Hinton II broth, 18-22 hours at 35° C.
In short: as §1

[5] = test system: E. faecalis GC4555 (ATCC Control); details: Enterococcus faecalis, Mueller-Hinton II broth, 18-22 hours at 35° C.
In short: as §1

[6] = test system: H. influenzae<> GC6896 (ATCC Control); details: Haemophilus influenzae, Mueller-Hinton II broth, 18-22 hours at 35° C.
In short: as §1

[7] = test system: S. aureus GC1079 (tet(K)); details: Staphylococcus aureus, Mueller-Hinton II broth, 18-22 hours at 35° C.
In short: as §1

[8] = test system: E. faecalis GC2242 (Van-resistant); details: Enterococcus faecalis, Mueller-Hinton II broth, 18-22 hours at 35° C.
In short: as §1

E. coli GC2270 (tet(M)) = details: Escherichia coli
In short: as §1

[9] = test system: M. catarrhalis* GC6907 (Clinical); details: Moraxella catarrhalis, Mueller-Hinton II broth, 18-22 hours at 35° C.
In short: as §1

[10] = test system: E. coli GC4560 (IMP mutant); details: Escherichia coli
In short: as §1

[11] = test system: E. coli GC4559 (parent GC4560); details: Escherichia coli, Mueller-Hinton II broth, 18-22 hours at 35° C.
In short: as §1

[12] = test system: C. albicans GC3066 ATCC (Control); details: Candida albicans, Mueller-Hinton II broth, 18-22 hours at 35° C.
E. coli GC1073 (tet(B)) = details: Escherichia coli
In short: as §1

[13] = test system: E. coli GC2203 (ATCC Control); details: Escherichia coli, Mueller-Hinton II broth, 18-22 hours at 35° C.
In short: as §1

[14] = test system: S. aureus GC2216 (ATCC Control); details: Staphylococcus aureus, Mueller-Hinton II broth, 18-22 hours at 35° C.
In short: as §1

[15] = test system: S. aureus GC4536 (Smith MP -In Vivo); details: Staphylococcus aureus, Mueller-Hinton II broth, 18-22 hours at 35° C.
In short: as §1

[16] = test system: S. pneumoniae* GC1894 (Clinical); details: Streptococcus pneumoniae, Mueller-Hinton II broth, 18-22 hours at 35° C.
In short: as §1

[17] = test system: S. aureus GC6467 (tet(M) + (K)); details: Staphylococcus aureus
In short: as §1

Row | SMILES | MIC [1] [µg/mL] | MIC [2] [µg/mL] | MIC [3] [µg/mL] | MIC [4] [µg/mL] | MIC [5] [µg/mL] | MIC [6] [µg/mL] | MIC [7] [µg/mL] | MIC [8] [µg/mL] | MIC (E. coli GC2270 (tet(M))) [µg/mL] | MIC [9] [µg/mL] | MIC [10] [µg/mL] | MIC [11] [µg/mL] | MIC [12] [µg/mL] | MIC (E. coli GC1073 (tet(B))) [µg/mL] | MIC [13] [µg/mL] | MIC [14] [µg/mL] | MIC [15] [µg/mL] | MIC [16] [µg/mL] | MIC [17] [µg/mL]
1 | CN(C)c1cc2nc(/C=C/c3ccccc3F)oc2c2c1C[C@H]1C[C@H]3[C@H](N(C)C)C(O)=C(C(N)=O)C(=O)[C@@]3(O)C(O)=C1C2=O [Example 30, (6aR,7aS,8S,11aS)-5,8-bis(dimethylamino)-2-[(E)-2-(2-fluorophenyl)ethenyl]-9,11a,12-trihydroxy-11,13-dioxo-6,6a,7,7a,8,11,11a,13-octahydrotetraceno[2,1-d][1,3]oxazole-10-carboxamide] | 8 (≈ 13.3 µM) | 16 (≈ 26.6 µM) | 16 (≈ 26.6 µM) | 4 (≈ 6.64 µM) | 8 (≈ 13.3 µM) | > 64 | 8 (≈ 13.3 µM) | 4 (≈ 6.64 µM) | > 64 | 32 (≈ 53.1 µM) | 8 (≈ 13.3 µM) | > 64 | > 64 | > 64 | > 64 | 4 (≈ 6.64 µM) | 8 (≈ 13.3 µM) | 16 (≈ 26.6 µM) | –
2 | CN(C)c1cc2nc(-c3ccc(C(C)(C)C)cc3)oc2c2c1C[C@H]1C[C@H]3[C@H](N(C)C)C(O)=C(C(N)=O)C(=O)[C@@]3(O)C(O)=C1C2=O [Example 31, (6aR,7aS,8S,11aS)-2-(4-tert-butylphenyl)-5,8-bis(dimethylamino)-9,11a,12-trihydroxy-11,13-dioxo-6,6a,7,7a,8,11,11a,13-octahydrotetraceno[2,1-d][1,3]oxazole-10-carboxamide] | 4 (≈ 6.51 µM) | 8 (≈ 13 µM) | 8 (≈ 13 µM) | 8 (≈ 13 µM) | 8 (≈ 13 µM) | > 64 | 8 (≈ 13 µM) | 8 (≈ 13 µM) | > 64 | 16 (≈ 26 µM) | 4 (≈ 6.51 µM) | > 64 | > 64 | > 64 | > 64 | 8 (≈ 13 µM) | 8 (≈ 13 µM) | 8 (≈ 13 µM) | –
3 | CN(C)c1cc2nc(-c3ccncc3)oc2c2c1C[C@H]1C[C@H]3[C@H](N(C)C)C(O)=C(C(N)=O)C(=O)[C@@]3(O)C(O)=C1C2=O [Example 33, (6aR,7aS,8S,11aS)-5,8-bis(dimethylamino)-9,11a,12-trihydroxy-11,13-dioxo-2-pyridin-4-yl-6,6a,7,7a,8,11,11a,13-octahydrotetraceno[2,1-d][1,3]oxazole-10-carboxamide] | 32 (≈ 57.2 µM) | 8 (≈ 14.3 µM) | 16 (≈ 28.6 µM) | 16 (≈ 28.6 µM) | 16 (≈ 28.6 µM) | 32 (≈ 57.2 µM) | 16 (≈ 28.6 µM) | 16 (≈ 28.6 µM) | > 64 | 8 (≈ 14.3 µM) | 16 (≈ 28.6 µM) | > 64 | > 64 | > 64 | 64 (≈ 114 µM) | 16 (≈ 28.6 µM) | 16 (≈ 28.6 µM) | 32 (≈ 57.2 µM) | –
4 | CN(C)c1cc2nc(-c3cccnc3)oc2c2c1C[C@H]1C[C@H]3[C@H](N(C)C)C(O)=C(C(N)=O)C(=O)[C@@]3(O)C(O)=C1C2=O [Example 34, (6aR,7aS,8S,11aS)-5,8-bis(dimethylamino)-9,11a,12-trihydroxy-11,13-dioxo-2-pyridin-3-yl-6,6a,7,7a,8,11,11a,13-octahydrotetraceno[2,1-d][1,3]oxazole-10-carboxamide] | 64 (≈ 114 µM) | 32 (≈ 57.2 µM) | 32 (≈ 57.2 µM) | 32 (≈ 57.2 µM) | 32 (≈ 57.2 µM) | > 64 | 32 (≈ 57.2 µM) | 32 (≈ 57.2 µM) | > 64 | 16 (≈ 28.6 µM) | 32 (≈ 57.2 µM) | > 64 | > 64 | > 64 | > 64 | 32 (≈ 57.2 µM) | 64 (≈ 114 µM) | 64 (≈ 114 µM) | –
5 | CN(C)Cc1nc2cc(N(C)C)c3c(c2o1)C(=O)C1=C(O)[C@]2(O)C(=O)C(C(N)=O)=C(O)[C@@H](N(C)C)[C@@H]2C[C@@H]1C3 [Example 36, (6aR,7aS,8S,11aS)-5,8-bis(dimethylamino)-2-[(dimethylamino)methyl]-9,11a,12-trihydroxy-11,13-dioxo-6,6a,7,7a,8,11,11a,13-octahydrotetraceno[2,1-d][1,3]oxazole-10-carboxamide] | 4 (≈ 7.41 µM) | 1 (≈ 1.85 µM) | 1 (≈ 1.85 µM) | 4 (≈ 7.41 µM) | 4 (≈ 7.41 µM) | 4 (≈ 7.41 µM) | 4 (≈ 7.41 µM) | 4 (≈ 7.41 µM) | – | 1 (≈ 1.85 µM) | 1 (≈ 1.85 µM) | 4 (≈ 7.41 µM) | > 64 | – | 2 (≈ 3.71 µM) | 2 (≈ 3.71 µM) | 4 (≈ 7.41 µM) | 1 (≈ 1.85 µM) | 16 (≈ 29.7 µM)
